According to US20180008672A1, “ANTI-ACTIVIN A ANTIBODIES AND METHODS OF USE THEREOF FOR TREATING PULMONARY ARTERIAL HYPERTENSION” (Regeneron Pharmaceuticals, Inc., priority 2016, published 2018):
Marks after values point to notes of the source that are not given here.

Key:
[1] = system: rat model of pulmonary hypertension induced by monocrotaline; experiment: rat model of pulmonary hypertension induced by monocrotaline; assay type: in vivo, rat (Sprague Dawley)
Method: To further evaluate the effect of anti-Activin A antibodies in pulmonary arterial hypertension, a rat model of pulmonary hypertension induced by monocrotaline was used.
Six to seven week old Sprague Dawley rats were used. Rats were separated into treatment groups such that body weights were similar among different groups. Rats were subcutaneously administered either 40 mg/kg of monocrotaline or 5 mL/kg of saline at day 0. At 14 days post injection, saline-injected rats were orally dosed with PEG 400 (at 50:50 v/v, Affymetrix Inc., #19957) at 5 mL/kg daily for two weeks, and monocrotaline-injected rats were separated into 5 groups with a group (n=9) orally dosed with PEG 400 at 5 mL/kg daily for two weeks, another group (n=12) orally administered macintentan at 30 mg/kg daily for two weeks, and three groups that were both orally dosed with PEG 400 at 5 mL/kg daily for two weeks and subcutaneously treated with either anti-Activin A antibodies, H4H10430P (n=9), H4H10446P2 (n=11), or an isotype control antibody (n=10) at 40 mg/kg twice a week for two weeks.
At day 27, pulmonary artery size and right ventricular function and dimensions of the rats were assessed using a high frequency ultrasound system (Vevo 2100, VisualSonics). For the assessment, rats were anesthetized (with 1.5% isoflurane at a rate of 1.0 cc/mL of medical grade air) and their temperature was monitored with a rectal temperature probe and held at approximately 37° C. with a heated platform (Vevo 2100, Visualsonics) and a warming lamp. Both brightness-mode (B-mode) and motion-mode (M-mode) imaging were used. B-mode imaging of the rat heart in cross-section was used to determine pulmonary artery cross-sectional area (PA CSA) at the level of the pulmonary valve. […] was used to determine the pulsed wave velocity time integral (VTI), which is derived from the area under the curve of representative Doppler tracings of blood flow through the pulmonary artery. Right ventricular stroke volume (RV SV) was calculated from the product of PA CSA and VTI. Right ventricular cardiac output (RV CO) was calculated from the product of SV and heart rate (HR). M-mode imaging was used to determine right ventricular free wall (RVFW) thickness during diastole and systole. Animals were returned to their home cages before right ventricular pressure assessment.
Right ventricular pressure was subsequently assessed for all treatment groups. Rats were anesthetized with isoflurane and were kept at approximately 37° C. using a platform (Heated Hard Pad 1, Braintree Scientific) and circulating heated water pump (T/Pump Classic, Gaymar Industries). The neck area for each rat was prepared for surgery by depilating over the right common carotid artery and right jugular vein. An incision was made and the right jugular vein was isolated with care as to not damage the carotid artery and/or the Vagus nerve. A piece of 5-0 silk suture was placed under the isolated jugular vein to allow for retraction of the vessel cranially, then a 26-guage needle was used to introduce a hole into the jugular vein. A pressure catheter (Micro-tip catheter transducer SPR-1000, Millar Instruments, Inc.) was inserted into the opening of the jugular vein and advanced past the right atrium into the right ventricle. The catheter was connected to pressure/volume instrument (MPVS-300, Millar Instruments, Inc.) that measured heart rate as well as both diastolic and systolic right ventricular pressures. These parameters were digitally acquired using a data acquisition system (PowerLab 4/35, ADlnstruments). LabChart Pro 7.0 software (ADlnstruments) was used to analyze right ventricular pressures. Readings were quantified from a 60 second interval of the pressure tracing (following a 2 minute period of recording to allow for pressure stabilization). The parameters analyzed were RV diastolic and systolic pressures, heart rate and ventricular contractile function. […]

[2] = system: long-term rat monocrotaline in vivo model; experiment: long-term rat monocrotaline model, survival; parameters: species or system rat (Sprague Dawley); details: monocrotaline 40 mg/kg SC day 0; therapy from two weeks post-monocrotaline for 5 weeks; antibodies 40 mg/kg SC 2x/wk, macitentan 30 mg/kg PO daily; n=10
Method: To evaluate the survival benefit of anti-Activin A antibody in a pulmonary arterial hypertension model, a long-term rat monocrotaline in vivo model was used.
Six-to-seven week old Sprague Dawley rats were used. Rats were separated into treatment groups such that body weights were similar among different groups. Rats were subcutaneously administered either 40 mg/kg of monocrotaline or 5 mL/kg of saline at day 0. At 14 days post-injection, saline-injected rats were subcutaneously treated with saline at 5 mL/kg, twice a week for 5 weeks, unless they died prematurely.
The monocrotaline-injected rats were separated into 4 groups. One group (n=10) was orally administered macitentan at 30 mg/kg daily. A second group (n=10) was subcutaneously administered saline at 5 mL/kg twice a week. A third group (n=10) was subcutaneously treated with either an isotype control antibody, H4H6334P. A fourth group (n=10) was subcutaneously treated with the anti-Activin A antibody, H4H10446P2, at 40 mg/kg twice a week. These monocrotaline-treated rats were started on therapy at two weeks post-monocrotaline and continued for 5 weeks, unless the animal died prematurely.
Animals were monitored twice a day for signs of morbidity or mortality. Based on literature searches, 5-8 weeks after monocrotaline injection is typically a time where morbidity and mortality are likely. […]

[3] = monocrotaline 40 mg/kg SC day 0, antibodies 40 mg/kg SC 2x/wk, macitentan 30 mg/kg PO daily from day 14 for two weeks, ultrasound day 27

Compound: CCCNS(=O)(=O)Nc1ncnc(OCCOc2ncc(Br)cn2)c1-c1ccc(Br)cc1 [Macitentan]
- PA CSA (Ave ± SEM) [1, 3]: 9.458 ± 0.476** mm^2
- Right Ventricular cardiac output (Ave ± SEM) [1, 3]: 127.8 ± 11.7 mL/min
- Stroke Volume (Ave ± SEM), right ventricular [1, 3]: 371.6 ± 27.9 µL
- effect on right ventricular cardiac output (in words) ([1]; monocrotaline exposed rats): partially restored cardiac output
- effect on PA CSA (in words) ([1]; monocrotaline-injected rats, FIG. 3A): restored PA CSA to that of saline-injected rats
- effect on right ventricular stroke volume (in words) ([1]; monocrotaline-injected rats, FIG. 3B): partially restored stroke volume
- effect on right ventricular hypertrophy, Fulton Index RV/(LV+S) (in words) ([1]; monocrotaline-injected rats, FIG. 3C): did not lessen right ventricular hypertrophy
- effect on elevation of right ventricular pressures (in words) ([1]; monocrotaline-injected rats, catheter-based assessment, FIG. 3D): none of the treatment groups (Macitentan or anti-Activin A groups) showed attenuation in the elevation of right ventricular pressures
- mortality (animals that died during the study) [2]: Forty
